Reference: publication PMC9828254, “Identification of Dihydroorotate Dehydrogenase Inhibitors Using the Cell Painting Assay” (Chembiochem, 2022)
“Also recorded” adds a separate entry of the source.

Tests used:
U2OS cells [1] = test: Cell Painting assay (CPA), morphological fingerprints; type: cell-based, human; conditions: for biosimilarity (BioSim) to IPP/CNRS-A017 / biosimilarity (BioSim) to brequinar: concentration not given, similar if biosimilarity >75 %; for BioSim [%] (biosimilarity) to brequinar: reference fingerprint brequinar 10 μM; for BioSim [%] (biosimilarity) to IPP/CNRS-A017: reference fingerprint IPP/CNRS-A017 5 μM
Protocol: Therefore, the definition of bioactivity clusters is crucial for proper hypothesis generation for uncharacterized small molecules that are subjected to the CPA and requires thorough inspection of the CPA fingerprints of reference compounds.[[2b], [9], [10]] […] For the CPA, human osteosarcoma U2OS cells were treated with compounds for 20 h prior to detection of cellular components and compartments (DNA, RNA, mitochondria, Golgi, endoplasmic reticulum (ER), actin, plasma membrane) using six different dyes. Morphological features are extracted and differences to the control (cells that were treated with DMSO) are expressed as Z scores. The CPA fingerprints used in this study compile Z scores for 579 features. […] Myxothiazol is an inhibitor of complex III of the mitochondrial electron transport chain.[15] Whereas de novo biosynthesis of pyrimidines takes place in the cytosol, DHODH is the only enzyme of the pyrimidine biosynthesis pathway that is localized at the inner mitochondrial membrane.[16] DHODH catalyzes the oxidation of dihydroorotate (DHO) to orotate by transferring electrons from DHO via the cofactor FMN to ubiquinone to yield ubiquinol. Electrons from ubiquinol are transferred further to complex III (cytochrome b,c1 complex), thereby recycling […] that is required for DHODH activity. In this way, pyrimidine biosynthesis is tightly coupled to the activity of complex III, which ensures that pyrimidine nucleotides and, thus, DNA and RNA are synthesized only if cells are supplied with sufficient amount of ATP via the mitochondrial respiratory chain. Alternatively, cells can replenish their pyrimidine pools via the salvage pathway by uptake of circulating pyrimidines.[5] Whereas proliferating cells rely on de novo pyrimidine biosynthesis to meet the high demand for nucleotides, the salvage pathway is used by resting and fully differentiated cells.[5]
The cell painting assay: The Cell Painting assay[25] was performed as described previously.[[9a], [26]] U2OS medium (5 μL) was added to each well of a 384‐well plate (PerkinElmer CellCarrier‐384 Ultra) prior to addition of 1,600 U2OS cells per well and incubation for 4 h at 37 °C. Standard stock concentration of compounds was 10 mM. […] Compounds were added to the cells using the Echo 520 acoustic dispenser (Labcyte) followed by incubation for 20 h at 37 °C. Subsequently, mitochondria were stained with 0.1 μg/μL Mito Tracker Deep Red for 30 min at 37 °C in the dark. Cells were fixed using 3.7 % formaldehyde (in PBS) for 20 min at 37 °C in the dark. Cells were washed three times using PBS before permeabilization using Triton X‐100 for 15 min 37 °C in the dark. After three additional washing steps, 25 μL of a staining solution were added to each well, which contained 1 % BSA, 5 μL/mL Phalloidin (Alexa594 conjugate, Thermo Fisher Scientific, A12381), 25 μg/mL Concanavalin A (Alexa488 conjugate, Thermo Fisher Scientific, Cat. No. C11252), 5 μg/mL Hoechst 33342 (Sigma, Cat. No. B2261‐25 mg), 1.5 μg/mL WGA‐Alexa594 conjugate (Thermo Fisher Scientific, Cat. No. W11262) and 1.5 μM SYTO 14 solution (Thermo Fisher Scientific, Cat. No. S7576). Plates were incubated for 30 min at 37 °C in the dark and washed three times with PBS. Plates were sealed and centrifuged for 1 min at 500 rpm. The plates were prepared in triplicates with shifted layouts to reduce plate effects and imaged using a Micro XL High‐Content Screening System (Molecular Devices) in 5 channels (DAPI: Ex350‐400/Em410‐480; FITC: Ex470‐500/Em510‐540; Spectrum Gold: Ex520‐545/Em560‐585; TxRed: Ex535‐585/Em600‐650; Cy5: Ex605‐650/Em670‐715) with 9 sites per well and 20× magnification (binning 2).
Generated images were processed with the CellProfiler package[27] (https://cellprofiler.org, version 3.0.0) on a computing cluster of the Max Planck Society to extract 1716 cell features. The data was then further aggregated as medians per well (9 sites→1 well), then over the three replicates.

HCT116 cells = test: DHODH rescue assay / cell growth (cell confluence, IncuCyte); type: cell-based; conditions: for rescue of cell growth by uridine: 100 μM uridine, 96 h; for rescue of cell growth by orotate (OA): 1.5 mM OA; for influence on cell growth (cell confluence): monitored over 96 h
Protocol: Figure 3 Influence of compounds on cell growth and DHODH activity. (A–C) HCT116 cells were treated with the compounds or DMSO as a control in presence or absence of 100 μM uridine. Cell confluence as a measure of cell growth was monitored over 96 h using IncuCyte ZOOM/S3. (A) Brequinar (BRQ). (B) Myxothiazol (MXT). […] (D–E) In vitro DHODH activity. […] (F) Influence of compound 7 on complex III activity. All data are mean values of three biological replicates (n=3)±SD.
(§1) DHODH rescue assay: 2,000 HCT116 or U2OS cells per well were seeded in a clear 96‐well plate and incubated as described above overnight prior to treatment. The next day, the medium was replaced by fresh compound or DMSO containing medium supplemented with control solvent or uridine (100 μM), OA (1.5 mM) or DHO (1.5 mM). Cell growth was monitored every 2 h for a total of 96 h after treatment start using an IncuCyte S3 (Essen BioScience). The cell confluence was quantified as a measure of cell growth using the IncuCyte S3 software (Essen BioScience).

U2OS cells [2] = conditions: 100 μM uridine
Protocol: as §1

Human DHODH = target: T1, Human DHODH (Homo sapiens, UniProt Q02127); test: DHODH enzymatic assay (DCPIP reduction); type: biochemical; conditions: for inhibition at 10 µM: 30 min preincubation, read-out: reduction (inhibition) of in vitro DHODH activity
T1 construct: 40 μL of purified DHODH (aa31–395, final concentration: 1.25 μg/mL); made in house; host or cells: E. coli BL21 (DE3)
Protocol: Expression was induced by adding 0.8 mM IPTG (AppliChem, A1008,0025) and temperature was reduced to 28 °C for 6 hours. […] The clarified supernatant was loaded to the column and washed with PBS (1 mL/min) for 2 h, followed by elution with 10 mM L‐glutathione (Sigma Aldrich, G4251) in PBS. The GST tag was not removed for further analysis. Factions containing hDHODH‐GST protein were pooled, concentrated with centrifugal filters (Ultra‐50 K, Merck Millipore, UFC905096) and shock‐frozen for further analysis. Protein concentration was determined by Bradford measurement.
DHODH enzymatic assay: Enzymatic activity of DHODH was assessed by monitoring the reduction of 2,6‐dichlorophenolinindophenol (DCPIP), which is coupled to the oxidation of dihydroorotate by DHODH. […] The reaction was initiated by adding 50 μL mastermix (2 mM L‐dihydroorotic acid, 0.2 mM decylubiquonone, 0.12 mM 2,6 dichlorphenolindophenol (DCPIP) in assay buffer). DCPIP reduction was monitored at λ=600 nm using Tecan Spark plate reader for 20 min.

complex III = target: T2, complex III (Bos taurus, UniProt P00157); test: MitoTox complex II+III OXPHOS activity assay kit; type: biochemical; conditions: bovine heart mitochondria; Figure 3F
T2 construct: tissue Abcam ab109905; host or cells: bovine heart mitochondria
Protocol: MitoTox™ complex II+III OXPHOS activity assay kit: The assay was performed using the MitoTox™ Complex II+III OXPHOS Activity Assay Kit (ab109905, Abcam) according to the manufacturer's instructions. Compounds or DMSO as a control was mixed with succinate solution (electron donor) and oxidized cytochrome c (electron acceptor) in the presence of complex IV inhibitor […] (2 mM, 60168, Sigma Aldrich) and complex I inhibitor Rotenone (12 μM, R8875, Sigma Aldrich). To start the electron transfer reaction, bovine heart mitochondria (0.03 mg/mL) were added to the mixture and conversion of oxidized cytochrome c into the reduced form was monitored for 5 min at 550 nm using the Tecan Spark plate reader.

U2OS cells [3] = test system: U2OS cells; parameters: method as in earlier work; conditions: ref 9b; cited from earlier work
[4] = Conc 10 μM, 20 h, percentage of significantly altered features
[5] = Homo sapiens, U2OS, Conc 10 μM, 20 h, read-out: Cell count [%]
[6] = 96 h, 2, 6, 7 at 10 μM, 4 at 30 μM
[7] = complex III inhibitors, Figure S8, concentration not given

T1 sequence (Q02127 31-395): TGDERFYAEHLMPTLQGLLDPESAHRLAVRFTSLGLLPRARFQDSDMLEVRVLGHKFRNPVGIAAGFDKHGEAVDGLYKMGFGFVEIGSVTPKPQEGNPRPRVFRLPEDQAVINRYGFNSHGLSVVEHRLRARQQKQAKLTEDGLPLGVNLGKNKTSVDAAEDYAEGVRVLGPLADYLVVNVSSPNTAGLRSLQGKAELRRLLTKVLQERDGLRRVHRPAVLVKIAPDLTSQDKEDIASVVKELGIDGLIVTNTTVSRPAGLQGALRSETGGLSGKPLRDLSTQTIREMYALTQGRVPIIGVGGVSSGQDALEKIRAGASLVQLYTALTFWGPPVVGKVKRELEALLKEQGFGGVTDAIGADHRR

## Cc1c(-c2ccc(-c3ccccc3F)cc2)nc2ccc(F)cc2c1C(=O)O [Brequinar, brequinar]
U2OS cells [1]; [4]
  Ind [%] (induction): 36%
U2OS cells [1]; [5]
  viability at 10 µM: 89%
U2OS cells [1]; full fingerprints, Figure S3A and S3B
  biosimilarity to the fingerprint of methotrexate: lack of biosimilarity
U2OS cells [1]; reference fingerprint myxothiazol 10 μM, compound Conc 10 μM
  BioSim [%] (biosimilarity) to myxothiazol: 84%
HCT116 cells
  rescue of cell growth by uridine: completely rescue; also recorded: full cell growth recovery
HCT116 cells; 1.5 mM DHO, 96 h, 2, 6, 7 at 10 μM, 4 at 30 μM
  rescue of cell growth by dihydroorotate (DHO): could not restore
HCT116 cells; [6]
  rescue of cell growth by orotate (OA): rescued normal cell proliferation
U2OS cells [2]
  rescue of cell growth by uridine: completely rescue

## CN1C(=O)[C@@]2(C(=O)N(Cc3ccncc3)c3ccc(OC(F)(F)F)cc32)c2ccccc21 [Compound 2]
U2OS cells [1]; [5]
  viability at 10 µM: 90%
HCT116 cells; [6]
  rescue of cell growth by orotate (OA): relieved
Human DHODH; 10 μM compound
  influence on in vitro DHODH activity, in words: only moderately inhibited
  inhibition at 10 µM: 27 to 44%

## NC(=O)c1[nH]nc([C@@H]2O[C@H](CO)[C@@H](O)[C@H]2O)c1O [Pyrazofurin, pyrazofurin]
U2OS cells [1]; [5]
  viability at 10 µM: 97%
U2OS cells [1]
  biosimilarity (BioSim) to IPP/CNRS-A017: high biosimilarity
  biosimilarity (BioSim) to brequinar: high biosimilarity
HCT116 cells
  rescue of cell growth by uridine: fully rescued
  influence on cell growth (cell confluence): suppressed the growth

## CCCCCC[C@H]1C(=O)O[C@H](C)[C@H](NC(=O)c2cccc(NC=O)c2O)C(=O)O[C@@H](C)[C@@H]1OC(=O)CC(C)C [antimycin A]
U2OS cells [1]
  biosimilarity (BioSim) to brequinar: biosimilar
HCT116 cells
  influence on cell growth (cell confluence): growth arrest
Human DHODH; [7]
  influence on in vitro DHODH activity, in words: do not inhibit

## COc1cc(OC)c2c(c1Cl)O[C@@]1(CC[C@@]3(C[C@H]1C)OCCc1c3[nH]c3ccc(C)cc13)C2=O [Compound 4]
U2OS cells [1]; [5]
  viability at 10 µM: 81%
HCT116 cells; [6]
  rescue of cell growth by orotate (OA): relieved
Human DHODH; 10 μM compound
  influence on in vitro DHODH activity, in words: only moderately inhibited
  inhibition at 10 µM: 27 to 44%

## CC(=O)Oc1c(C[C@]23CCOC4(CCCCC4)C2=Nc2ccc(Br)cc23)occc1=O [Compound 7]
U2OS cells [1]; [5]
  viability at 10 µM: 93%
HCT116 cells; [6]
  rescue of cell growth by orotate (OA): relieved
Human DHODH; 10 μM compound
  influence on in vitro DHODH activity, in words: inactive; also recorded: did not have any influence
Complex III
  influence on complex III activity: did not impair

## Cc1c(Oc2ccc(F)cc2)c(OC(C)C)nn1-c1ccc(C2CC2)cn1 [Compound 1]
U2OS cells [1]; Conc 5 μM, 20 h
  Ind [%] (induction): 10%
U2OS cells [1]; Homo sapiens, U2OS, Conc 5 μM, 20 h, read-out: Cell count [%]
  viability at 5 µM: 105%
U2OS cells [1]
  biosimilarity (BioSim) to IPP/CNRS-A017: not biosimilar
  biosimilarity (BioSim) to brequinar: not biosimilar
U2OS cells [1]; compound Conc 5 μM
  BioSim [%] (biosimilarity) to brequinar: 39%

## Brc1ccc2[nH]c3c(c2c1)CCOC31CCCCC1 [Compound 6]
U2OS cells [1]; [5]
  viability at 10 µM: 88%
U2OS cells [1]; compound Conc 10 μM
  BioSim [%] (biosimilarity) to IPP/CNRS-A017: 87%
  BioSim [%] (biosimilarity) to brequinar: 84%
HCT116 cells; [6]
  rescue of cell growth by orotate (OA): relieved
Human DHODH; 10 μM compound
  influence on in vitro DHODH activity, in words: only moderately inhibited
  inhibition at 10 µM: 27 to 44%
U2OS cells [3]
  CPA fingerprint similarity to the iron chelator deferoxamine: 81%
  cells in S phase (analysis of CPA fingerprints): accumulation of cells in S phase; also recorded: increase in the percentage of cells in S phase

## CO/C(=C/C(N)=O)[C@H](C)[C@H](/C=C/c1csc(-c2csc([C@@H](C)/C=C/C=C/C(C)C)n2)n1)OC [Myxothiazol, myxothiazol]
U2OS cells [1]; Conc 10 μM, 20 h
  Cell count [%]: 73%
U2OS cells [1]; [4]
  Ind [%] (induction): 46%
U2OS cells [1]
  biosimilarity (BioSim) to brequinar: biosimilar
HCT116 cells
  rescue of cell growth by uridine: only partly restored normal cell growth
  influence on cell growth (cell confluence): suppressed the growth
HCT116 cells; listed as myxothiazol
  influence on cell growth (cell confluence): growth arrest
Human DHODH; [7]
  influence on in vitro DHODH activity, in words: do not inhibit

## O=C(Nc1cccnc1)N1Cc2cccc(c2)CN(S(=O)(=O)C(F)(F)F)CC/C=C/C[C@@H]1CO [Compound 5]
U2OS cells [1]; [5]
  viability at 10 µM: 82%
U2OS cells [1]; compound Conc 10 μM
  BioSim [%] (biosimilarity) to IPP/CNRS-A017: 87%
  BioSim [%] (biosimilarity) to brequinar: 84%
Human DHODH; 10 μM compound
  inhibition at 10 µM: > 50%
Human DHODH; dose-response, n=3 ± SD, read-out: IC50 for inhibition of DHODH
  IC50: 6.2 ± 3 µM
U2OS cells [3]
  CPA fingerprint similarity to the iron chelator deferoxamine: 80%
  cells in S phase (analysis of CPA fingerprints): accumulation of cells in S phase; also recorded: increase in the percentage of cells in S phase

## COc1ccc2[nH]c3c(c2c1)CCO[C@]31CC[C@@]2(Oc3c(Cl)c(OC)cc(OC)c3C2=O)[C@H](C)C1 [Compound 3]
U2OS cells [1]; Homo sapiens, U2OS, Conc 3 μM, 20 h, read-out: Cell count [%]
  viability at 3 µM: 94%
Human DHODH; 10 μM compound
  inhibition at 10 µM: > 50%
